{
  "source": "patent US8357659B2",
  "about": "“Method of treating pain or itching with APETx2 peptide toxin” (priority 2008, dated 2013)",
  "key": {"[1]": {"biological_target": "T1, human ASIC3 channels (Homo sapiens, UniProt Q9UHC3)", "T1 construct": "expressed in transfected cells; host or cells: F-11 cells, vector pASIC3h-IRES-EGFP, JetPEI", "T1 sequence (Q9UHC3 1-531)": "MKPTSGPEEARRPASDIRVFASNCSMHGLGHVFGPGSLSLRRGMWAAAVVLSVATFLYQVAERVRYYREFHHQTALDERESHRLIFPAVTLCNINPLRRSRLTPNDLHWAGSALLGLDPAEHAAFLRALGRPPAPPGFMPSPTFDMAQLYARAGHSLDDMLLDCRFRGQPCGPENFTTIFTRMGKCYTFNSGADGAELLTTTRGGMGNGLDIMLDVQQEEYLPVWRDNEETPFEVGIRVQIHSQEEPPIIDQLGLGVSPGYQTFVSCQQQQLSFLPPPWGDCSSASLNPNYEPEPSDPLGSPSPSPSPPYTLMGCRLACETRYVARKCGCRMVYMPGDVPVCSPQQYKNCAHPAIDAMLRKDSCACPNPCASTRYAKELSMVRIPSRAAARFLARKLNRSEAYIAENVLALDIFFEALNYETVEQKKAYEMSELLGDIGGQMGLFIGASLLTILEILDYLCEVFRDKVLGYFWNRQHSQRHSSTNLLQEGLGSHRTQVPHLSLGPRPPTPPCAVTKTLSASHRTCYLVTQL", "test": "Whole cell patch clamp of human ASIC3 in transfected F-11 cells", "format": "cell-based", "conditions": "APETx2 at 1 μM; acidification pH 8.0 to pH 7.0", "protocol": "F-11 cells (refs. 44, 45, 46, 47]) were cultured in 5% of CO2 at a density of 50,000 cells per 35 mm Petri dish. The culture medium contained HAM F-12 medium (Invitrogen) supplemented with 15% foetal bovine serum (ICN Biomedicals), 1×HAT (sodium hypoxanthine, aminopterine and thymidine), 200 μg/ml of allo-4-hydroxy-L-proline (Sigma-Aldrich) and 1% antibiotics. One day after seeding, the cells were transfected with ASIC1a or ASIC3 DNAc (rat clones) using Lipofectamine™ (Invitrogen) according to the manufacturer's instructions using the vectors pCI-ASIC1ar+pIRES2-EGFP (ratio 1:2) or pCI-ASIC3r+pIRES2-EGFP (ratio 1:10) ([ref. 36]), quoted above). For the experiments concerning the human ASIC3 clone (refer to experiments on the effects of the APETx2 toxin on the human form of the ASIC3 channel), the cells were transfected with the DNAc of human ASIC3 using the transfection agent JetPEI (Polypus Transfection) according to the manufacturer's instructions with the aid of the vector pASIC3h-IRES-EGFP. […]\nThe whole cell configuration of the patch clamp method was used ([ref. 48]) in order to measure the membrane currents (imposed voltage) or the membrane potentials (imposed current). […] The data were sampled at 10 kHz, digitised using a Digidata 1322A A-D/D-A converter (Axon Instruments) and recorded on a hard disk using pClamp software (version 9.2.0.11, Axon Instruments). […]"}, "[2]": {"biological_target": "T2, heteromer ASIC1b+3 (Rattus norvegicus, UniProt O35240+P55926)", "T2 sequence (P55926 1-559 isoform P55926-3)": "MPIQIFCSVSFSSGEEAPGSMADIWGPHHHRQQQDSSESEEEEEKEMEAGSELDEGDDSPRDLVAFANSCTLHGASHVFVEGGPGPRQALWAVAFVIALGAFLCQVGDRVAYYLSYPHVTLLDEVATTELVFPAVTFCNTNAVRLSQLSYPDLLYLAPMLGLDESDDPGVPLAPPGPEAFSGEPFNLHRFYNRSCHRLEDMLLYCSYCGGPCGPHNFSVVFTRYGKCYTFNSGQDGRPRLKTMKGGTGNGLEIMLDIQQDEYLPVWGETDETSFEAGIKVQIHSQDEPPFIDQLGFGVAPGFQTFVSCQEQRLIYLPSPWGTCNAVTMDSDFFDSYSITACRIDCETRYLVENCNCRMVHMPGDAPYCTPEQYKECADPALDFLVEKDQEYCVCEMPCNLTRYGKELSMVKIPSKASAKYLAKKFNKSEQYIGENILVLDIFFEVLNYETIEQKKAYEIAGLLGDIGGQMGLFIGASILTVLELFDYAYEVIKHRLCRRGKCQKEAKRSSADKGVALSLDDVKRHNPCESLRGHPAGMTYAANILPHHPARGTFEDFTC", "T2 sequence (O35240 1-533)": "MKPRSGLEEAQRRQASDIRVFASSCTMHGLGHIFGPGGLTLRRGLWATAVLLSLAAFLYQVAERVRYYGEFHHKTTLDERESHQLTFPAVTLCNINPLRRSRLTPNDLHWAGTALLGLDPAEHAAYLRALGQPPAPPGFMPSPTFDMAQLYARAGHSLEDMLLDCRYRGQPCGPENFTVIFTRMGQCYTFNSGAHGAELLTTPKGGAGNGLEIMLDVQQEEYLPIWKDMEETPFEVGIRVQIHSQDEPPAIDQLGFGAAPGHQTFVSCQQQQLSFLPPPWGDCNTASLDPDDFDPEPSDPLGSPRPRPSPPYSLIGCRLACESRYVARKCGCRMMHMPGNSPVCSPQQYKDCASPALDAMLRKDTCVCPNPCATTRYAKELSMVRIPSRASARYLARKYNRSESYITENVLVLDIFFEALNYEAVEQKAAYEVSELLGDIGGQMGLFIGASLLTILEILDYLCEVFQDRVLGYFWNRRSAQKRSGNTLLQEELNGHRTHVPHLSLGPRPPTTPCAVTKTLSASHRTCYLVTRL", "conditions": "relative to ASIC3 / ASIC2b+3; cited from earlier work"}},
  "data": [
    {"substance": "peptide of 42 amino acids (SEQ ID NO: 3), three disulphide bonds, from sea anemone Anthopleura elegantissima; blocks ASIC3 [APETx2]", "values": [
      {"measurement": "amplitude of the human ASIC3 currents", "setting": "[1]", "result": "significantly reduced"},
      {"measurement": "affinity for the heteromer ASIC1b+3", "setting": "[2]", "result": "less affinity"}
    ]}
  ]
}
